Reference: ChEMBL document CHEMBL5346863, “Discovery of substituted benzyloxy-benzylamine inhibitors of acetyltransferase Eis and their anti-mycobacterial activity” (Eur J Med Chem, 2022)
≈ marks a conversion by molar mass, not a printed value. Calls of active or inactive are those of the source. No cut-off for these calls is given here.

Tests used:
[1] = system: Mycobacterium tuberculosis; test: Antibacterial activity against Mycobacterium tuberculosis H37Rv assessed as MIC of kanamycin A at 100 uM incubated for 24 hrs followed by kanamycin A addition measured after 6 days by alamarblue dye based assay; type: functional; conditions: time 7.0 day
[2] = system: Mycobacterium tuberculosis; test: Antibacterial activity against Mycobacterium tuberculosis H37Ra assessed as bacterial growth inhibition incubated 2 to 3 weeks by resazurin dye based assay; type: functional; conditions: time 2-3 weeks
[3] = system: Mycobacterium tuberculosis; test: Antibacterial activity against Mycobacterium tuberculosis mc2 6230 assessed as bacterial growth inhibition incubated 2 to 3 weeks by resazurin dye based assay; type: functional; conditions: time 2-3 weeks
[4] = system: Mycobacterium avium; test: Antibacterial activity against Mycobacterium avium ATCC 25291 assessed as bacterial growth inhibition incubated for 2 to 3 weeks by resazurin dye based assay; type: functional; conditions: time 2-3 weeks
[5] = system: Mycobacterium tuberculosis; test: Antibacterial activity against Mycobacterium tuberculosis mc2 6230 assessed as MIC of kanamycin A at 6.25 uM incubated for 24 hrs followed by kanamycin A addition measured after 6 days by alamarblue dye based assay; type: functional; conditions: mc2 6230, 168 h, time 7 day
[6] = system: HEK293; test: Cytotoxicity against HEK293 cells upto 12.5 uM incubated for 24 hrs by resazurin dye based cell viability assay; type: toxicity; conditions: human, hek293, 24 h
[7] = target: T1, N-acetyltransferase Eis (Mycobacterium tuberculosis (strain ATCC 25618 / H37Rv), UniProt P9WFK7); test: Inhibition of wild-type Mycobacterium tuberculosis Eis expressed in Escherichia coli BL21(DE3) cells incubated for 5 mins by Ellman's method
T1 sequence (P9WFK7 whole entry): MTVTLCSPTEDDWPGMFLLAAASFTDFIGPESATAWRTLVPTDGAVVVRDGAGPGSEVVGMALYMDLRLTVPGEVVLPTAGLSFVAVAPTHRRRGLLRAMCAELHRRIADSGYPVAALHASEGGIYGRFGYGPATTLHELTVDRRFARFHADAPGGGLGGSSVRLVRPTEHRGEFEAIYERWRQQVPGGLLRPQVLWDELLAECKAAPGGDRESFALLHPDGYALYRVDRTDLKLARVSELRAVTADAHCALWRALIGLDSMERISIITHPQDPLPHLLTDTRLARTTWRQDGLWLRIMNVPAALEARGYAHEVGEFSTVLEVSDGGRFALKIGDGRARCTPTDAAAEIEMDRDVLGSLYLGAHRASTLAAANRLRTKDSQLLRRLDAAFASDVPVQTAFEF

[8] = system: Mycobacterium tuberculosis; test: Antibacterial activity against Mycobacterium tuberculosis mc2 6230 K204 assessed as MIC of kanamycin A at 6.25 uM incubated for 24 hrs followed by kanamycin A addition measured after 6 days by alamarblue dye based assay; type: functional; conditions: mc2 6230 K204, 168 h, time 7 day
[9] = system: J774.1; test: Cytotoxicity against mouse J774.1 cells upto 12.5 uM incubated for 24 hrs by resazurin dye based cell viability assay; type: toxicity; conditions: j774.1, 24 h
[10] = system: HEK293; test: Cytotoxicity against HEK293 cells <=50 uM incubated for 24 hrs by resazurin dye based cell viability assay; type: toxicity; conditions: human, hek293, 24 h
[11] = system: Mycobacteroides abscessus; test: Antibacterial activity against Mycobacterium abscessus ATCC 19977 assessed as bacterial growth inhibition incubated for 2 to 3 weeks by resazurin dye based assay; type: functional; conditions: time 2-3 weeks
[12] = system: Mycolicibacterium smegmatis; test: Antibacterial activity against Mycobacterium smegmatis mc2 122 assessed as bacterial growth inhibition incubated for 2 to 3 weeks by resazurin dye based assay; type: functional; conditions: time 2-3 weeks
[13] = system: A549; test: Cytotoxicity against human A549 cells upto 12.5 uM incubated for 24 hrs by resazurin dye based cell viability assay; type: toxicity; conditions: a549, 24 h
[14] = system: A549; test: Cytotoxicity against human A549 cells upto 50 uM incubated for 24 hrs by resazurin dye based cell viability assay; type: toxicity; conditions: a549, 24 h
[15] = system: J774.1; test: Cytotoxicity against mouse J774.1 cells <=50 uM incubated for 24 hrs by resazurin dye based cell viability assay; type: toxicity; conditions: j774.1, 24 h
[16] = system: Mycobacterium parascrofulaceum; test: Antibacterial activity against Mycobacterium parascrofulaceum ATCC BAA-614 assessed as bacterial growth inhibition incubated for 2 to 3 weeks by resazurin dye based assay; type: functional; conditions: time 2-3 weeks
[17] = system: Mycobacterium intracellulare; test: Antibacterial activity against Mycobacterium intracellulare ATCC 13950 assessed as bacterial growth inhibition incubated for 2 to 3 weeks by resazurin dye based assay; type: functional; conditions: time 2-3 weeks
[18] = system: Mycobacterium tuberculosis; test: Antibacterial activity against Mycobacterium tuberculosis H37Rv assessed as MIC of kanamycin A at 19.7 uM incubated for 24 hrs followed by kanamycin A addition measured after 6 days by alamarblue dye based assay; type: functional; conditions: 168 h, time 7 day
[19] = system: A549; test: Cytotoxicity against human A549 cells >=50 uM incubated for 24 hrs by resazurin dye based cell viability assay; type: toxicity; conditions: a549, 24 h
[20] = system: Mycobacterium tuberculosis; test: Antibacterial activity against Mycobacterium tuberculosis H37Rv assessed as MIC of kanamycin A at 97.9 uM incubated for 24 hrs followed by kanamycin A addition measured after 6 days by alamarblue dye based assay; type: functional, organism-based; conditions: time 7.0 day
[21] = system: Mycobacterium tuberculosis; test: Antibacterial activity against Mycobacterium tuberculosis mc2 6230 K204 assessed as MIC of kanamycin A at 25 uM incubated for 24 hrs followed by kanamycin A addition measured after 6 days by alamarblue dye based assay; type: functional; conditions: Mycobacterium tuberculosis, mc2 6230 K204, 168 h, time 7 day, read-out: MIC
[22] = system: Mycobacterium tuberculosis; test: Antibacterial activity against Mycobacterium tuberculosis K204 assessed as MIC of kanamycin A at 97.9 uM incubated for 24 hrs followed by kanamycin A addition measured after 6 days by alamarblue dye based assay; type: functional, organism-based; conditions: time 7.0 day
[23] = system: Mycobacterium tuberculosis; test: Antibacterial activity against Mycobacterium tuberculosis mc2 6230 assessed as MIC of kanamycin A at 25 uM incubated for 24 hrs followed by kanamycin A addition measured after 6 days by alamarblue dye based assay; type: functional; conditions: mc2 6230, 168 h, time 7 day
[24] = target: T1, N-acetyltransferase Eis; test: Binding affinity to wild-type Mycobacterium tuberculosis Eis expressed in Escherichia coli BL21(DE3) cells assessed as inhibition constant incubated for 5 mins by Ellman's method based Michaelis-Menten analysis
[25] = system: Mycobacterium tuberculosis; test: Antibacterial activity against Mycobacterium tuberculosis H37Rv assessed as MIC of kanamycin A at 8.2 uM incubated for 24 hrs followed by kanamycin A addition measured after 6 days by alamarblue dye based assay; type: functional; conditions: 168 h, time 7 day
[26] = system: Mycobacterium tuberculosis; test: Antibacterial activity against Mycobacterium tuberculosis mc2 6230 assessed as MIC of kanamycin A at 50 uM incubated for 24 hrs followed by kanamycin A addition measured after 6 days by alamarblue dye based assay; type: functional; conditions: mc2 6230, 168 h, time 7 day
[27] = system: Mycobacterium tuberculosis; test: Antibacterial activity against Mycobacterium tuberculosis mc2 6230 K204 assessed as MIC of kanamycin A at 50 uM incubated for 24 hrs followed by kanamycin A addition measured after 6 days by alamarblue dye based assay; type: functional; conditions: mc2 6230 K204, 168 h, time 7 day
[28] = system: Mycobacterium tuberculosis; test: Antibacterial activity against Mycobacterium tuberculosis H37Rv assessed as MIC of kanamycin A at 5 uM incubated for 24 hrs followed by kanamycin A addition measured after 6 days by alamarblue dye based assay; type: functional; conditions: 168 h, time 7 day

Row | Compound | Activity [1] | MIC [2] | MIC [3] | MIC [4] | Activity [6] | IC50 [7] | Activity [9] | MIC [11] | MIC [12] | Activity [13] | MIC [16] | MIC [17] | Ki [24] | other results
1 | Clc1ccc(COc2ccc(CNCc3ccccc3)cc2)cc1 | Active | 3.9 µM (≈ 1.32 µg/mL) | 12.5 µM (≈ 4.22 µg/mL) | 62.5 µM (≈ 21.1 µg/mL) | Non-Toxic | > 200000 nM | Non-Toxic | 31.3 µM (≈ 10.6 µg/mL) | 15.6 µM (≈ 5.27 µg/mL) | Non-Toxic | 15.6 µM (≈ 5.27 µg/mL) | – | – | MIC [5]: < 1.25 µM; MIC [8]: < 1.25 µM; Activity [10]: Non-Toxic; Activity [14]: Non-Toxic; Activity [15]: Non-Toxic
2 | Fc1ccc(COc2ccc(CNCc3ccncc3)cc2)cc1 | – | 7.8 µM (≈ 2.51 µg/mL) | 50 µM (≈ 16.1 µg/mL) | > 62.5 µM | – | ~1600 nM | – | > 62.5 µM | – | – | – | 15.6 µM (≈ 5.03 µg/mL) | – | MIC [18]: ≤ 1.25 µg/mL
3 | Clc1ccc(COc2ccccc2CNCc2cccnc2)cc1 | Active | 62.5 µM (≈ 21.2 µg/mL) | 50 µM (≈ 16.9 µg/mL) | > 62.5 µM | Non-Toxic | 2000 nM | Non-Toxic | > 62.5 µM | 62.5 µM (≈ 21.2 µg/mL) | Non-Toxic | – | – | 1.16 µM | Activity [19]: Toxic; Activity [20]: Active; MIC [21]: > 10 µM; Activity [22]: Active; MIC [23]: < 1.25 µM
4 | Fc1ccc(COc2ccccc2CNCc2cccnc2)cc1 | – | 125 µM (≈ 40.3 µg/mL) | > 100 µM | > 62.5 µM | – | 10000 nM | – | > 62.5 µM | > 62.5 µM | – | > 62.5 µM | > 62.5 µM | – | MIC [25]: 2.5 µg/mL
5 | Brc1ccc(COc2ccccc2CNCc2ccccc2)cc1 | Active | 31.3 µM (≈ 12 µg/mL) | 100 µM (≈ 38.2 µg/mL) | > 62.5 µM | – | 1300 nM | – | – | – | – | – | 31.3 µM (≈ 12 µg/mL) | 5.26 µM | MIC [26]: < 1.25 µM; MIC [27]: > 10 µM
6 | Clc1cccc(COc2ccccc2CNCc2ccncc2)c1 | – | 62.5 µM (≈ 21.2 µg/mL) | 100 µM (≈ 33.9 µg/mL) | > 62.5 µM | – | 8900 nM | – | > 62.5 µM | > 62.5 µM | – | 31.3 µM (≈ 10.6 µg/mL) | > 62.5 µM | – | MIC [28]: 2.5 µg/mL
